# Data taken from patent US20240239818A1, “COMPOUNDS AND COMPOSITIONS COMPRISING FLUOROPHORES FOR USE IN VISUALIZATION AND PURIFICATION OR MANIPULATION” (priority 2022, published 2024).
# Experiments:
# HaloTag® protein (HT7) = target: T1, HaloTag® protein (HT7) (Rhodococcus rhodochrous, UniProt P0A3G2, A155T/A167V/A172T/A224E/C128F/C176G/D78G/E160K/E257K/H272N/K175M/K195N/L47V/L88M/N227D/S58T/T264A/Y273L/Y87F); test: 1-Photon spectroscopy and quantum yield of HaloTag® conjugates; type: physicochemical; conditions: absence vs presence of excess HaloTag® protein
# T1 construct: 6xHis (N); T7 tag (gene 10 leader) (N); Xpress tag (N); made in house; host or cells: bacterial expression (vector pRSET-A)
# Protocol: HaloTag® protein purification. The bacterial expression vector pRSET-A (Invitrogen) was used to recombinantly express HaloTag® protein (HT7; Promega).^45 The soluble 6×His-Tagged HaloTag® protein was affinity purified by immobilized metal affinity chromatography (IMAC) on a 5-mL Fast Flow HiTrap Sepharose 6 column (Cytiva) with a 0-200 mM imidazole elution gradient using an Avant Protein Purification System (ÄKTA). A280 peak fractions were pooled, concentrated by a spin concentrator, and dialyzed 3× into tris-buffered saline (TBS). The amino acid sequence of HaloTag® protein (HT7) expressed from pRSET-A is SEQ ID NO: 1.
# 1-Photon spectroscopy of HaloTag® ligands and HaloTag® conjugates. […] All measurements were taken at ambient temperature (22 ±2° C.). Absorption spectra were recorded on a Cary Model 100 spectrometer (Agilent) using 1-cm path length 1.0-mL quartz microcuvettes from Starna Cells. Fluorescence spectra were recorded on a Cary Eclipse fluorometer (Varian) using 1-cm path length 3.5-mL quartz cuvettes (Starna Cells). […] An aliquot of HaloTag® protein (1.5 equiv) was added, and the resulting mixture was incubated until a consistent absorbance signal was observed (60-120 min). To measure the fold-increase of absorbance upon HaloTag® binding, a “no HaloTag®” control experiment was performed where an equivalent volume of TBS blank was added in place of the protein. […]
# [1] = target: T2, HaloTag®-PDGFR fusion protein (Rhodococcus rhodochrous, UniProt P0A3G2, A155T/A167V/A172T/A224E/C128F/C176G/D78G/E160K/E257K/H272N/K175M/K195N/L47V/L88M/N227D/S58T/T264A/Y273L/Y87F); test: Live-cell labeling of cell surface HaloTag® fusion in U2OS cells (Airyscan fluorescence microscopy); type: cell-based; conditions: 100 nM, 1 h
# T2 construct: expressed in transfected cells; host or cells: U2OS, transient nucleofection
# Protocol: (§1) U2OS cell culture, labeling, and fluorescence microscopy. U2OS cells (ATCC) were cultured in Dulbecco's modified Eagle medium (DMEM, phenol red-free; Life Technologies) supplemented with 10% (v/v) fetal bovine serum (FBS, Life Technologies), 1 mM GlutaMAX (Life Technologies) and maintained at 37° C. in a humidified 5% (v/v) CO2 environment. These cell lines undergo regular mycoplasma testing by the Janelia Cell Culture Facility. U2OS cells stably expressing an integrated HaloTag®-histone H2B fusion protein (U2OS.H2B.HaloTag®) were used for nuclear imaging and imaged 18-24 h post-plating. […]
# (§2) Live cell imaging with biotin-rhodamine HaloTag® ligands. Having evaluated biotin ligands 12-15 in vitro, their ability to label HaloTag® fusions in live mammalian cells was tested. […] Quantification of the intracellular fluorescence signal from JF549 and msGFP channel further confirmed the poor labeling from 12 (FIG. 9).
# [2] = test system: HaloTag®-TOMM20, HaloTag®-Sec61β, HaloTag®-histone H2B fusion proteins; type: cell-based
# Protocol: as §1, §2
# T1 sequence (P0A3G2 other isoform, or with tags, fused parts or gaps with the stated changes): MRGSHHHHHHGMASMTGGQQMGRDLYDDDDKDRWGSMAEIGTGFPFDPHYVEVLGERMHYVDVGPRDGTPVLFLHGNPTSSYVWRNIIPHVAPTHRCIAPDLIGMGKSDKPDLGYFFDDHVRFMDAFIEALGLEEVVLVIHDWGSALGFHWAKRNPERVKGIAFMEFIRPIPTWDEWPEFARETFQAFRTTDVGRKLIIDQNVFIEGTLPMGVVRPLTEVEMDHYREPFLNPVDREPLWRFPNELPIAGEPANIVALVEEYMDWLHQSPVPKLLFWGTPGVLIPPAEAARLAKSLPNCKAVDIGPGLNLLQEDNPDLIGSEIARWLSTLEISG
# Chain of HaloTag®-TOMM20, HaloTag®-Sec61β, HaloTag®-histone H2B fusion proteins (as listed by the source): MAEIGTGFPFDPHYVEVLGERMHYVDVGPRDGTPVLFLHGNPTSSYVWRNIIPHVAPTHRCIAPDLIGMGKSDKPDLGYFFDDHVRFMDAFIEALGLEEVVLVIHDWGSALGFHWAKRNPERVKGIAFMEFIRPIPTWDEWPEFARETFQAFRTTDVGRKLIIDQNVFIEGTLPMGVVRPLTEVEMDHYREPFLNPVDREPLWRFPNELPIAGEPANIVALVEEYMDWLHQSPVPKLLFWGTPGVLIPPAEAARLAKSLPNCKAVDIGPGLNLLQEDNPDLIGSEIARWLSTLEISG
# T2 sequence (P0A3G2 other isoform, or with tags, fused parts or gaps with the stated changes): as the sequence (as listed by the source) above
compound,measurement,setting,value
"C[Si]1(C)C2=CC(=[N+]3CC(C(=O)NCCOCCOCCNC(=O)CCCC[C@@H]4SC[C@@H]5NC(=O)N[C@@H]54)C3)C=CC2=C(c2cc(C(=O)NCCOCCOCCCCCCCl)ccc2C(=O)[O-])c2ccc(N3CCC3)cc21 (some centres unmarked) [compound 14, Biotin-JF646-HaloTag® ligand]",fluorogenicity upon conjugation to the HaloTag® protein (fold-increase of absorbance),HaloTag® protein (HT7),2.5 ×
"C[Si]1(C)C2=CC(=[N+]3CC(F)(C(=O)NCCOCCOCCNC(=O)CCCC[C@@H]4SC[C@@H]5NC(=O)N[C@@H]54)C3)C=CC2=C(c2cc(C(=O)NCCOCCOCCCCCCCl)ccc2C(=O)[O-])c2ccc(N3CC(F)C3)cc21 (some centres unmarked) [compound 15, Biotin-JF635-HaloTag® ligand]",fluorogenicity upon conjugation to the HaloTag® protein (fold-increase of absorbance),HaloTag® protein (HT7),14.7 ×
Biotin-JF549-HaloTag® ligand [compound 12],labeling of extracellular HaloTag®-PDGFR fusion,[1],robust labeling of the cellular membrane
same,cell-permeability,[2],poor cell-permeability
same,labeling of intracellular HaloTag® fusions,"[2]; live U2OS cells, 100 nM, 1 h, mitochondria, ER, nucleus",did not show an appreciable signal
